Experimental data from ChEMBL document CHEMBL3997794, “Design and synthesis of benzodiazepine analogs as isoform-selective human lysine deacetylase inhibitors” (Eur J Med Chem, 2017).

Tests used:
Histone deacetylase 8 = molecular target: T1, Histone deacetylase 8 (Homo sapiens, UniProt Q9BY41); experiment: Inhibition of human KDAC8 after 60 mins by fluorescence assay
T1 sequence (Q9BY41 whole entry): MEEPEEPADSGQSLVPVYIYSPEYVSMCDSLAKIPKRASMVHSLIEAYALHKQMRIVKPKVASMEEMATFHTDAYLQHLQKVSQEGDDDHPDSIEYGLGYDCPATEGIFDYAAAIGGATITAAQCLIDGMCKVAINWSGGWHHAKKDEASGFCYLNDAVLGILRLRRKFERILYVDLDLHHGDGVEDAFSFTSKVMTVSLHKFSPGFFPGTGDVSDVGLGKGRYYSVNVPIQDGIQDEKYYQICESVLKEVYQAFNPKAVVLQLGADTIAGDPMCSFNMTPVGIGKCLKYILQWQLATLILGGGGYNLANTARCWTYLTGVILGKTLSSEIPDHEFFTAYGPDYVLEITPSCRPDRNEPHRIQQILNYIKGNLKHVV

[1] = molecular target: T2, Protein deacetylase HDAC6 (Homo sapiens, UniProt Q9UBN7); experiment: Inhibition of human KDAC6 using FITC-labeled histone H4 acetylated peptide as substrate after 60 mins by fluorescence assay
T2 sequence (Q9UBN7 whole entry): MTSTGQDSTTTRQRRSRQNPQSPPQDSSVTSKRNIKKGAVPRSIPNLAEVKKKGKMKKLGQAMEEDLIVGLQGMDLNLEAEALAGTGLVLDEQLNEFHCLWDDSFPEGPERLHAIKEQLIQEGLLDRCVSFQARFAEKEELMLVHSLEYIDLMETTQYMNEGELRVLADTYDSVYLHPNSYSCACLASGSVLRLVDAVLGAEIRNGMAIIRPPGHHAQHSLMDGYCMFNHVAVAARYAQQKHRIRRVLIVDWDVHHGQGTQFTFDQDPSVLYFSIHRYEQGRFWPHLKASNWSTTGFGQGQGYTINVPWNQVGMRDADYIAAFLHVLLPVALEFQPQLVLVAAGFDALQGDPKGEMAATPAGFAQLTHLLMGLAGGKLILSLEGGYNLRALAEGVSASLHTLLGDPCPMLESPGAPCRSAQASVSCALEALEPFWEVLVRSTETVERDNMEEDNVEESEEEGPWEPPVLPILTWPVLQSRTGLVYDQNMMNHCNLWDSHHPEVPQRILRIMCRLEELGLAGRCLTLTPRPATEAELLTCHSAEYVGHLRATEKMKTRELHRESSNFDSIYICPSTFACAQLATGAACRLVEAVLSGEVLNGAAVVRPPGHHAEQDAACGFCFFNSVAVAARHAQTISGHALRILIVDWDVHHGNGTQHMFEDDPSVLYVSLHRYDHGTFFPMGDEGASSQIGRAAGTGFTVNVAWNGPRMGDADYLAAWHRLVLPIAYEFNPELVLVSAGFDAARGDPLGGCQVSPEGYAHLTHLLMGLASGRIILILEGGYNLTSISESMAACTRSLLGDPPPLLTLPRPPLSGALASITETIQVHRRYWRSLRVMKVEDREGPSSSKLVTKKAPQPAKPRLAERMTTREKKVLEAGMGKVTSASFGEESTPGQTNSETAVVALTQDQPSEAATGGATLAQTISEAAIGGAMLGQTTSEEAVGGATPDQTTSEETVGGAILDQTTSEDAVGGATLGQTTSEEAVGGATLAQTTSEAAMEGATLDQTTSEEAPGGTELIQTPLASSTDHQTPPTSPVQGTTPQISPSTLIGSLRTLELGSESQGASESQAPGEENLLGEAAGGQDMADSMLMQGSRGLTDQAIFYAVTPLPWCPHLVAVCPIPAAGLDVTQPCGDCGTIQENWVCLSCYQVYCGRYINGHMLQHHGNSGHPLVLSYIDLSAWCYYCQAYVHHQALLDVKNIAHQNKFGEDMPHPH

Histone deacetylase 3 [2] = molecular target: T3, Histone deacetylase 3 (Homo sapiens, UniProt O15379); experiment: Inhibition of human KDAC3 using FITC-labeled p53 acetylated peptide as substrate after 60 mins by fluorescence assay
Histone deacetylase 1 [3] = molecular target: T4, Histone deacetylase 1 (Homo sapiens, UniProt Q13547); experiment: Inhibition of human KDAC1 using substrate A after 60 mins by fluorescence assay
[4] = molecular target: T5, Histone deacetylase 8 (Homo sapiens) (UniProt Q9BY41); experiment: Inhibition of human KDAC8 at 30 uM after 60 mins by fluorescence assay relative to control
T5 sequence (whole entry): T1 sequence (Q9BY41 whole entry)

Histone deacetylase 3 [5] = molecular target: T3, Histone deacetylase 3; experiment: Inhibition of human KDAC3 at 30 uM using FITC-labeled p53 acetylated peptide as substrate after 60 mins by fluorescence assay relative to control
Histone deacetylase 1 [6] = molecular target: T4, Histone deacetylase 1; experiment: Inhibition of human KDAC1 at 30 uM using substrate A after 60 mins by fluorescence assay relative to control
[7] = molecular target: T6, Protein deacetylase HDAC6 (Homo sapiens) (UniProt Q9UBN7); conditions: at 30 µM
T6 sequence (whole entry): T2 sequence (Q9UBN7 whole entry)
Description: Inhibition of human KDAC6 at 30 uM using FITC-labeled histone H4 acetylated peptide as substrate after 60 mins by fluorescence assay relative to control

T4 sequence (Q13547 whole entry): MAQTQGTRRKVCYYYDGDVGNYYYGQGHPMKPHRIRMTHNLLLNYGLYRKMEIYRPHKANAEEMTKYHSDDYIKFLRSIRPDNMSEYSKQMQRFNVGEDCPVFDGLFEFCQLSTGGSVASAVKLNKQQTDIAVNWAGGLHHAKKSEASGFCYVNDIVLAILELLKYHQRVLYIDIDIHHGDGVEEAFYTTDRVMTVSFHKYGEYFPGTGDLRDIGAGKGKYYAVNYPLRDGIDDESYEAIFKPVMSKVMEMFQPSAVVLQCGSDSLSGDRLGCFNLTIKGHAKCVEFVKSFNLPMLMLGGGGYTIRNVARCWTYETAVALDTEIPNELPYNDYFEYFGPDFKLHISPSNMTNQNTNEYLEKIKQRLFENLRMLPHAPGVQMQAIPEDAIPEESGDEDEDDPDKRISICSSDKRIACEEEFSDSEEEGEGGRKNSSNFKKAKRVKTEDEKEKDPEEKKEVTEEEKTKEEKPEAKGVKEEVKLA
T3 sequence (O15379 whole entry): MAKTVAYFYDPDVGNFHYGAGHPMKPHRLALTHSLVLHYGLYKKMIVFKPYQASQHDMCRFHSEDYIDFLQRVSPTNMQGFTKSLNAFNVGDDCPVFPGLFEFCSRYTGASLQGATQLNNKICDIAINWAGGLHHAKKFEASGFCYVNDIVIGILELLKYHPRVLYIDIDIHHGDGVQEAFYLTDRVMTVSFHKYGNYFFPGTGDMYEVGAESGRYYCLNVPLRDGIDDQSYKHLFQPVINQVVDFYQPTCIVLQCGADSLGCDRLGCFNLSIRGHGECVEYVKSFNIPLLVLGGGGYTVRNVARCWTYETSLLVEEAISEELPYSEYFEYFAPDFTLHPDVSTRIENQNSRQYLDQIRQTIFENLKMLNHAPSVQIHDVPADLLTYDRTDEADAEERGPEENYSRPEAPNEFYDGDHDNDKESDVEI

| Compound | IC50 (Histone deacetylase 8) | IC50 [1] | IC50 (Histone deacetylase 3 [2]) | IC50 (Histone deacetylase 1 [3]) | inhibition [4] | inhibition (Histone deacetylase 3 [5]) | inhibition (Histone deacetylase 1 [6]) | inhibition [7] |
| --- | --- | --- | --- | --- | --- | --- | --- | --- |
| CC(C)[C@@H]1N=C(c2ccccc2)c2ccccc2N(CCCCC(=O)O)C1=O | > 30 µM | > 30 µM | > 30 µM | > 30 µM | 3.18% | 0% | 2.24% | 0% |
| CC(C)(C)OC(=O)C[C@@H]1N=C(c2ccccc2)c2ccccc2N(CCCCC(=O)NO)C1=O | 22.4 µM | 6.43 µM | 4.15 µM | 15.7 µM | 62.3% | 91.5% | 64.1% | 80.6% |
| CC(C)(C)OC(=O)n1c(C[C@@H]2N=C(c3ccccc3)c3ccccc3N(CCCCC(=O)NO)C2=O)cc2ccccc21 | 8.39 µM | 6.92 µM | 5.21 µM | > 30 µM | 79.7% | 93.1% | 46.9% | 85% |
| CC(C)(C)OC(=O)CC[C@@H]1N=C(c2ccccc2)c2ccccc2N(CCCCC(=O)O)C1=O | > 30 µM | > 30 µM | > 30 µM | > 30 µM | 9.85% | 23.9% | 7.96% | 0% |
| CC(C)(C)OC(=O)n1c(C[C@@H]2N=C(c3ccccc3)c3ccccc3N(CCCCC(=O)O)C2=O)cc2ccccc21 | > 30 µM | > 30 µM | > 30 µM | > 30 µM | 23.2% | 0.79% | 11.3% | 7.4% |
| COC(=O)CCCCN1C(=O)CN=C(c2ccccc2)c2ccccc21 | > 30 µM | > 30 µM | > 30 µM | > 30 µM | 2.83% | 0% | 0.19% | 0% |
| C[C@@H](O)[C@@H]1N=C(c2ccccc2)c2ccccc2N(CCCCC(=O)NO)C1=O | > 30 µM | 11.6 µM | 1.8 µM | 11.2 µM | 40.3% | 94.2% | 66.5% | 70.1% |
| CC(C)(C)OC[C@@H]1N=C(c2ccccc2)c2ccccc2N(CCCCC(=O)O)C1=O | > 30 µM | > 30 µM | > 30 µM | > 30 µM | 5.87% | 0% | 3.74% | 0% |
| COC(=O)CCCCN1C(=O)[C@H](C)N=C(c2ccccc2)c2ccccc21 | > 30 µM | > 30 µM | > 30 µM | > 30 µM | 12.7% | 4.62% | 9.4% | 8.84% |
| COC(=O)CCCCN1C(=O)[C@H](CC(=O)OC(C)(C)C)N=C(c2ccccc2)c2ccccc21 | > 30 µM | > 30 µM | > 30 µM | > 30 µM | 0% | 0% | 3.65% | 0% |
| O=C(CCCCN1C(=O)[C@H](CO)N=C(c2ccccc2)c2ccccc21)NO | > 30 µM | 6.35 µM | 4.94 µM | > 30 µM | 19.9% | 85.9% | 41% | 74.4% |
| COC(=O)CCCCN1C(=O)[C@H](Cc2cc3ccccc3n2C(=O)OC(C)(C)C)N=C(c2ccccc2)c2ccccc21 | > 30 µM | > 30 µM | > 30 µM | > 30 µM | 0% | 0% | 1.64% | 0% |
| O=C(O)CCCCN1C(=O)[C@H](CCC(=O)O)N=C(c2ccccc2)c2ccccc21 | > 30 µM | – | > 30 µM | > 30 µM | 6.92% | 1.47% | 13.6% | – |
| O=C(O)CCCCN1C(=O)[C@H](Cc2cncn2C(c2ccccc2)(c2ccccc2)c2ccccc2)N=C(c2ccccc2)c2ccccc21 | > 30 µM | – | > 30 µM | > 30 µM | 10.4% | 0% | 7.49% | – |
| COC(=O)CCCCN1C(=O)[C@H](CC(=O)NC(c2ccccc2)(c2ccccc2)c2ccccc2)N=C(c2ccccc2)c2ccccc21 | > 30 µM | – | > 30 µM | > 30 µM | 3.62% | 5.6% | 8.7% | – |
| COC(=O)CCCCN1C(=O)[C@H](CCC(=O)NC(c2ccccc2)(c2ccccc2)c2ccccc2)N=C(c2ccccc2)c2ccccc21 | > 30 µM | – | > 30 µM | > 30 µM | 0% | 0% | 7.24% | – |
| O=C(CCCCN1C(=O)[C@H](CCC(=O)NO)N=C(c2ccccc2)c2ccccc21)NO | 8.52 µM | – | 2.57 µM | 15 µM | 74.7% | 92.2% | 62.5% | – |
| O=C(O)CCCCN1C(=O)[C@H](CCC(=O)NC(c2ccccc2)(c2ccccc2)c2ccccc2)N=C(c2ccccc2)c2ccccc21 | > 30 µM | – | – | > 30 µM | 11% | 0% | 3.58% | – |
| O=C(CCCCN1C(=O)[C@H](CC(=O)NC(c2ccccc2)(c2ccccc2)c2ccccc2)N=C(c2ccccc2)c2ccccc21)NO | > 30 µM | – | 4.31 µM | > 30 µM | 43.9% | 89.5% | 43.1% | – |
| Cc1c(C)c(S(=O)(=O)NC(=N)NCCC[C@@H]2N=C(c3ccccc3)c3ccccc3N(CCCCC(=O)O)C2=O)c(C)c2c1OC(C)(C)C2 | > 30 µM | – | > 30 µM | > 30 µM | 10.2% | 3.8% | 4.96% | – |
| N[C@H](Cc1ccc(Cl)cc1Cl)C(=O)N1Cc2ccccc2C1 | 1.09 µM | > 30 µM | 20 µM | 27.4 µM | – | – | – | – |
| O=C(O)CCCCN1C(=O)[C@H](CC(=O)NC(c2ccccc2)(c2ccccc2)c2ccccc2)N=C(c2ccccc2)c2ccccc21 | > 30 µM | – | > 30 µM | > 30 µM | 11.4% | 7.32% | 8.49% | – |
| O=C(CCCCN1C(=O)[C@H](CCC(=O)NC(c2ccccc2)(c2ccccc2)c2ccccc2)N=C(c2ccccc2)c2ccccc21)NO | 23.5 µM | – | 0.83 µM | 9.24 µM | 53.1% | 99.1% | 78.7% | – |
| COC(=O)CCCCN1C(=O)[C@H](CCCNC(=N)NS(=O)(=O)c2c(C)c(C)c3c(c2C)CC(C)(C)O3)N=C(c2ccccc2)c2ccccc21 | > 30 µM | – | > 30 µM | > 30 µM | 7.3% | 3.33% | 4.8% | – |
| O=C(O)CC[C@@H]1N=C(c2ccccc2)c2ccccc2N(CCCCC(=O)NO)C1=O | > 30 µM | – | 8.71 µM | > 30 µM | 29.7% | 79.8% | 48.1% | – |
